According to patent US8592181B2, “Brazzein variant having higher sweetness and method for preparing multi-variant” (Chung-Ang University Industry-Academy Cooperation Foundation, priority 2009, dated 2013):

Columns and labels:
human sense of taste = test: Sweetness measured by human sense of taste (20 trained subjects, minimum concentration at which sweetness is first sensed); type: in vivo; conditions: for Multiples of increased sweetness to minor-type brazzein: relative to minor-type brazzein; for Minimum stimulation level in which one senses sweetness for first time: 20 trained subjects; for Sweetness ratios of sucrose (1 g/100 ml) to primary brazzein variants (minor-type brazzein: 2000) / Sweetness ratios of sucrose (1 g/100 ml) to brazzein multi-variants: relative to 1 g/100 ml sucrose threshold
Method: Since the recombinant brazzein according to the present invention is not a sucrose-based compound having a cyclic ring, the sweetness of the recombinant brazzein was not measured using a saccharometer. Therefore, the activity of the recombinant brazzein was measured using the human sense of taste. Sugar content measurement was performed on 20 subjects who were trained to feel substantially the same minimum concentration of sucrose in which they could sense sweetness using a sucrose solution. That is, a concentration of each brazzein variant in which the subjects could sense sweetness for the first time was measured. Also, a sweetness ratio of the sucrose solution to the wild-type brazzein was 1 g/100 ml, which was a minimum stimulation level in which the subjects could sense sweetness. Also, a sweetness ratio of the minor-type brazzein protein to the wild-type brazzein was 500 μg/100 ml, which was a minimum stimulation level in which the subjects could sense sweetness. Therefore, the sweetness was calculated using the sweetness ratios (That is, 1/0.0005=2000 for the minor-type brazzein).
Also, the brazzein multi-variants were measured for activity (sweetness) in the same manner as in Example 3-1.

[1] = Thermal stability: heated at 80° C. for 4 hours in 50 mM Tris-HCl (pH 8.0), sweetness change level measured by the 20 subjects; type: physicochemical; conditions: primary variants
Method: On the basis of the results measured in Example 3-1, 100 mg of each of the brazzein variants having high sweetness, that is, brazzein(H30K) set forth in SEQ ID NO: 99, brazzein(H30R) set forth in SEQ ID NO: 100, brazzein(E35D) set forth in SEQ ID NO: 109, brazzein(E40A) set forth in SEQ ID NO: 113, brazzein(E40A) set forth in SEQ ID NO: 113, brazzein(E40D) set forth in SEQ ID NO: 114, brazzein(E40K) set forth in SEQ ID NO: 115, brazzein(E40H) set forth in SEQ ID NO: 116 and brazzein(E40R) set forth in SEQ ID NO: 117, was dissolved in a 50 mM Tris-HCl (pH 8.0) solution, and heated at 80° C. for 4 hours. Based on the sweetness measured before the heat treatment of the respective primary brazzein variants, a sweetness change level of each primary brazzein variant was then measured by the 20 subjects in the same manner as in Example 3-1.
Also, the brazzein multi-variants were measured for thermal stability in the same manner as in Example 3-2. […] From the high performance liquid chromatography analysis of the quaternary variants out of the brazzein multi-variants, it was confirmed that the quaternary variants maintained their constant thermal stability in spite of the fact that the quaternary variants had different structural properties than the minor-type brazzein protein.

Row | Molecule | Multiples of increased sweetness to minor-type brazzein (human sense of taste; primary brazzein variants) | Minimum stimulation level in which one senses sweetness for first time (human sense of taste; primary brazzein variants) | Sweetness ratios of sucrose (1 g/100 ml) to primary brazzein variants (minor-type brazzein: 2000) (human sense of taste) | Thermal stability (relative activity after heat treatment) [1] | Multiples of increased sweetness to minor-type brazzein (human sense of taste; brazzein multi-variants) | Sweetness ratios of sucrose (1 g/100 ml) to brazzein multi-variants (human sense of taste) | Minimum stimulation level in which the subjects could sense sweetness (human sense of taste; sucrose solution) [g/100 ml]
1 | E40K: primary brazzein variant: Glu at position 40 of minor-type brazzein substituted with Lys (DKCKKVYENYPVSKCQLANQCNYDCKLRKHARSGECFYDKKRNLQCICDYCEY; Brazzein(E40K)) [Brazzein E40K] | 3.3 | 150 μg/100 ml | 6,600 | maintained their thermal stabilities | – | – | –
2 | E40R: primary brazzein variant: Glu at position 40 of minor-type brazzein substituted with Arg (DKCKKVYENYPVSKCQLANQCNYDCKLRKHARSGECFYDRKRNLQCICDYCEY; Brazzein(E40R)) [Brazzein E40R] | 2 | 250 μg/100 ml | 4,000 | maintained their thermal stabilities | – | – | –
3 | R42K: primary brazzein variant: Arg at position 42 of minor-type brazzein substituted with Lys (DKCKKVYENYPVSKCQLANQCNYDCKLRKHARSGECFYDEKKNLQCICDYCEY; Brazzein(R42K)) [Brazzein R42K] | 0.16 | 3,000 μg/100 ml | 334 | – | – | – | –
4 | R42H: primary brazzein variant: Arg at position 42 of minor-type brazzein substituted with His (DKCKKVYENYPVSKCQLANQCNYDCKLRKHARSGECFYDEKHNLQCICDYCEY; Brazzein(R42H)) [Brazzein R42H] | 0.16 | 3,000 μg/100 ml | 334 | – | – | – | –
5 | R32A: primary brazzein variant: Arg at position 32 of minor-type brazzein substituted with Ala (DKCKKVYENYPVSKCQLANQCNYDCKLRKHAASGECFYDEKRNLQCICDYCEY; Brazzein(R32A)) [Brazzein R32A] | 0.08 | 6,000 μg/100 ml | 167 | – | – | – | –
6 | E35D_E40K: secondary brazzein variant of minor-type brazzein with substitutions E35D and E40K (DKCKKVYENYPVSKCQLANQCNYDCKLRKHAKSGDCFYDKKRNLQCICDYCEY; Brazzein(E35D_E40K)) [Brazzein E35D_E40K] | – | – | – | – | 4 | 8,000 | –
7 | E35D_E40R: secondary brazzein variant of minor-type brazzein with substitutions E35D and E40R (DKCKKVYENYPVSKCQLANQCNYDCKLRKHAKSGDCFYDRKRNLQCICDYCEY; Brazzein(E35D_E40R)) [Brazzein E35D_E40R] | – | – | – | – | 6 | 12,000 | –
8 | H30K: primary brazzein variant: His at position 30 of minor-type brazzein substituted with Lys (DKCKKVYENYPVSKCQLANQCNYDCKLRKKARSGECFYDEKRNLQCICDYCEY; Brazzein(H30K)) [Brazzein H30K] | 2 | 250 μg/100 ml | 4,000 | – | – | – | –
9 | R42D: primary brazzein variant: Arg at position 42 of minor-type brazzein substituted with Asp (DKCKKVYENYPVSKCQLANQCNYDCKLRKHARSGECFYDEKDNLQCICDYCEY; Brazzein(R42D)) [Brazzein R42D] | 0.05 | 10,000 μg/100 ml | 100 | – | – | – | –
10 | K5H: primary brazzein variant: Lys at position 5 of minor-type brazzein substituted with His (DKCKHVYENYPVSKCQLANQCNYDCKLRKHARSGECFYDEKRNLQCICDYCEY; Brazzein(K5H)) [Brazzein K5H] | 0.05 | 10,000 μg/100 ml | 100 | – | – | – | –
11 | H30R_E40A: secondary brazzein variant of minor-type brazzein with substitutions H30R and E40A (DKCKKVYENYPVSKCQLANQCNYDCKLRKRAKSGECFYDAKRNLQCICDYCEY; Brazzein(H30R_E40A)) [Brazzein H30R_E40A] | – | – | – | – | 4 | 8,000 | –
12 | E35D_E40D: secondary brazzein variant of minor-type brazzein with substitutions E35D and E40D (DKCKKVYENYPVSKCQLANQCNYDCKLRKHAKSGDCFYDDKRNLQCICDYCEY; Brazzein(E35D_E40D)) [Brazzein E35D_E40D] | – | – | – | – | 5 | 10,000 | –
13 | R32H: primary brazzein variant: Arg at position 32 of minor-type brazzein substituted with His (DKCKKVYENYPVSKCQLANQCNYDCKLRKHAHSGECFYDEKRNLQCICDYCEY; Brazzein(R32H)) [Brazzein R32H] | 0.16 | 3,000 μg/100 ml | 334 | – | – | – | –
14 | E35K: primary brazzein variant: Glu at position 35 of minor-type brazzein substituted with Lys (DKCKKVYENYPVSKCQLANQCNYDCKLRKHARSGKCFYDEKRNLQCICDYCEY; Brazzein(E35K)) [Brazzein E35K] | 0.08 | 6,000 μg/100 ml | 167 | – | – | – | –
15 | H30R_E40D: secondary brazzein variant of minor-type brazzein with substitutions H30R and E40D (DKCKKVYENYPVSKCQLANQCNYDCKLRKRAKSGECFYDDKRNLQCICDYCEY; Brazzein(H30R_E40D)) [Brazzein H30R_E40D] | – | – | – | – | 4 | 8,000 | –
16 | K5A: primary brazzein variant: Lys at position 5 of minor-type brazzein substituted with Ala (DKCKAVYENYPVSKCQLANQCNYDCKLRKHARSGECFYDEKRNLQCICDYCEY; Brazzein(K5A)) [Brazzein K5A] | 0.08 | 6,000 μg/100 ml | 167 | – | – | – | –
17 | OC[C@H]1O[C@@](CO)(O[C@H]2O[C@H](CO)[C@@H](O)[C@H](O)[C@H]2O)[C@@H](O)[C@@H]1O [sucrose, reference compound] | – | – | – | – | – | – | 1
18 | H30R_E40K: secondary brazzein variant of minor-type brazzein with substitutions H30R and E40K (DKCKKVYENYPVSKCQLANQCNYDCKLRKRAKSGECFYDKKRNLQCICDYCEY; Brazzein(H30R_E40K)) [Brazzein H30R_E40K] | – | – | – | – | 5 | 10,000 | –
19 | K29H: primary brazzein variant: Lys at position 29 of minor-type brazzein substituted with His (DKCKKVYENYPVSKCQLANQCNYDCKLRHHARSGECFYDEKRNLQCICDYCEY; Brazzein(K29H)) [Brazzein K29H] | 0.05 | 10,000 μg/100 ml | 100 | – | – | – | –
